Assay [1] deals with T1, squalene synthetase (Homo sapiens, UniProt P37268).
T1 construct: endogenous in cells; host or cells: HepG2 (human hepatic carcinoma) cells, microsome fraction
T1 sequence (P37268 1-417): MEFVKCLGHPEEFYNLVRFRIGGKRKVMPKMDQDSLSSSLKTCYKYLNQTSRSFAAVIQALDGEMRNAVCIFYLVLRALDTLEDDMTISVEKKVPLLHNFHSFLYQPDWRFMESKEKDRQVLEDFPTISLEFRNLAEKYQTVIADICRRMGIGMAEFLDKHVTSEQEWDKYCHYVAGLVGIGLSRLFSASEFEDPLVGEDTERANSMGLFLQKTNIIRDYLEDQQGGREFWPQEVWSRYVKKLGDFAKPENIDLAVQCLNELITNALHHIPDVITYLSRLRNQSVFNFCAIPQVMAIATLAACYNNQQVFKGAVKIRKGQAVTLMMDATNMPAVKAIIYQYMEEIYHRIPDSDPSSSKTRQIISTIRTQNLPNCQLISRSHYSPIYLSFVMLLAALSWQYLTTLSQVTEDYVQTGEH
Description: Squalene synthetase inhibitory activity, human-derived enzyme (HepG2 microsome fraction). It counts as biochemical. The conditions noted are these: 5 uM [1-3H] farnesyl pyrophosphate, 37° C., 45 minutes. As for the experimental part: (§1) Assay Method of Squalene Synthetase Inhibitory Activity
(§2) The squalene synthetase inhibitory activity was assayed as follows with the enzyme solutions described in the subsequent Experimental Examples 1 and 2.
(§3) More specifically, an enzyme solution (protein content 0.8 ug) prepared in Experimental Example 1 or 2 was added to a solution (total volume 50 μl)) containing 5 uM [1-^3 H] farnesyl pyrophosphate (specific activity 25 uCi/mole), 1 mM NADPH, 5 mM MgCl2, 6 mM glutathione, a 100 mM buffer solution of potassium phosphate (pH 7.4) and a test drug (used as an aqueous solution or a DMSO solution), then the reaction was allowed to proceed at 37° C. for 45 minutes. To the reaction mixture was added 150 μl of a mixture of chloroform and methanol (1:2) to suspend the reaction, followed by adding 50 μl of chloroform and 50 μl of a 3N aqueous solution of sodium hydroxide. 50 μl of the chloroform layer (lower layer) containing the reaction mixture having squalene as the principal component and 3 ml of toluene-based liquid scintillator were mixed, and its radioactivity was determined by means of a liquid scintillation counter.
(§4) The squalene synthetase inhibitory activity was expressed in terms of the concentration inhibiting by 50% the radioactivity taken into the chloroform layer (IC50, molar concentration (M)).
Human hepatic carcinoma cells HepG2 (about 1×10^9 cells) obtained by incubation in a Dulbecco-modified Eagle's medium (37° C. in the presence of 5% CO2) were suspended in 10 ml of an ice-cooled buffer solution [100 mM potassium phosphate buffer (pH 7.4), 30 mM nicotinamide and 2.5 mM MgCl2 ]. The cells were crashed by means of ultrasonication (for 30 seconds, twice). From the sonicate thus obtained, the microsome fraction was obtained by the same procedure as in Experiment Example 1, which was suspended in an ice-cooled 100 mM potassium phosphate buffer (pH 7.4) (about 4 mg/ml protein concentration). This suspension was used as the enzyme solution. The results are shown in [Table 4].

In assay [2] the target is T2, squalene synthetase (Rattus norvegicus, UniProt Q02769).
T2 construct: from tissue; host or cells: rat liver microsome fraction (SD male rat, 6 weeks old)
T2 sequence (Q02769 1-416): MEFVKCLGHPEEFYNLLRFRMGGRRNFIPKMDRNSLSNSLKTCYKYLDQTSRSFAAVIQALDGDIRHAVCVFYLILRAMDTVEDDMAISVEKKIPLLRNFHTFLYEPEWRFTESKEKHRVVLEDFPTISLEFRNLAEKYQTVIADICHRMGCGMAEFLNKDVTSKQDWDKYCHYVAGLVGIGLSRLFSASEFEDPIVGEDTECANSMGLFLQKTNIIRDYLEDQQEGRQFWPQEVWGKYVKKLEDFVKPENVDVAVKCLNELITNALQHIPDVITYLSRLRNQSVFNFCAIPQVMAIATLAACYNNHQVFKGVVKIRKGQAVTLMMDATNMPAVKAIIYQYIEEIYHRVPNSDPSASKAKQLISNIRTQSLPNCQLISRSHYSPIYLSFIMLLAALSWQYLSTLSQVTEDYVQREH
In words: Squalene synthetase inhibitory activity, rat-derived enzyme (liver microsome fraction). It counts as biochemical. Conditions: SD rat liver microsome fraction; 5 uM [1-3H] farnesyl pyrophosphate, 37° C., 45 minutes. As for the experimental part: as §1, §2, §3, §4
An SD male rat (6 week old) was killed by bleeding, and its liver was excised. About 10 g of the liver was washed with a saline solution cooled with ice, which was then homogenized in 15 ml of an ice-cooled buffer solution [100 mM potassium phosphate (pH 7.4), 15 mM nicotinamide, 2 mM MgCl2 ], followed by centrifugation for 20 minutes (4° C.) with 10000×g. The supernatant layer was separated and subjected to further centrifugation for 90 minutes (4° C.) at 105000×g. The sediment was then suspended in an ice-cooled 100 mM phosphate buffer solution (pH 7.4), which was again subjected to centrifugation for 90 minutes (4° C.) at 105000×g. The sediment thus obtained (microsome fraction) was suspended in an ice-cooled 100 mM potassium phosphate buffer (pH 7.4) (about 40 mg/ml protein concentration, determined with BCA protein assay kit of Pias Co., Ltd.). This suspension was used as the enzyme solution.

pIC50: −log10 of the molar value.

The values below come from patent US5698691A, “Condensed cyclic compounds and their use” (Takeda Chemical Industries, Ltd., priority 1993, dated 1997).

Broadly, the pIC50 is −log10 of the IC50, conventionally taken in molar units. Low values mean a large IC50, high ones a small IC50.

Consider `COc1ccccc1[C@H]1S[C@H](CC(=O)O)C(=O)N(CC(C)C)c2ccc(Cl)cc21` (relative stereo) [Example 10-7, 3,5-trans-7-Chloro-5-(2-methoxyphenyl)-1-isobutyl-2-oxo-1,2,3,5-tetrahydro-4,1-benzothiazepine-3-acetic acid], for which the pIC50 at squalene synthetase [1] is 7.89; on squalene synthetase [2] it was 7.59.

Molecule `CC(C)(C)CN1C(=S)[C@@H](CC(=O)O)O[C@H](c2ccccc2Cl)c2cc(Cl)ccc21` (relative stereo) [Example 28, 3,5-trans-7-Chloro-5-(2-chlorophenyl)-1-neopentyl-1,2,3,4-tetrahydro-2-thioxo-4,1-benzoxazepine-3-acetic acid] showed a pIC50 on squalene synthetase [2] of 6.34.

Regarding `COc1cccc([C@H]2S[C@H](CC(=O)O)C(=O)N(CC(C)(C)C)c3ccc(Cl)cc32)c1OC` [Example 43, (3R,5S)-7-Chloro-5-(2,3-dimethoxyphenyl)-1-neopentyl-2-oxo-1,2,3,5-tetrahydro-4,1-benzothiazepine-3-acetic acid], the pIC50 on squalene synthetase [1] was 8.23; on squalene synthetase [2] it was 8.03.

Regarding `COc1ccccc1[C@H]1O[C@H](CC(=O)O)C(=O)N(CC(C)(C)C)c2sc(Cl)cc21` (relative stereo) [Example 33, 3,5-trans-7-Chloro-5-(2-methoxyphenyl)-1-neopentyl-2-oxo-1,2,3,5-tetrahydro-4,1-thieno[2,3-e]oxazepine-3-acetic acid], the pIC50 was 7.14 against squalene synthetase [1] and 7.06 against squalene synthetase [2].

Take `CCCN1C(=O)[C@@H](CC(=O)O)S[C@H](c2ccccc2OC)c2cc(Cl)ccc21` (relative stereo) [Example 10-6]: the pIC50 is 7.51 against squalene synthetase [1] and 7.41 against squalene synthetase [2].

As to `CC(C)(C)CN1C(=O)N(CC(=O)O)CC(c2ccccc2Cl)c2cc(Cl)ccc21` (stereo not drawn) [Example 53, 7-Chloro-5-(2-chlorophenyl)-1-neopentyl-2-oxo-1,2,4,5-tetrahydro-3H-1,3-benzodiazepine-3-acetic acid], the results for the pIC50 on squalene synthetase [1] and on squalene synthetase [2] were 6.89 and 6.54, respectively.

Consider `CC(C)CN1C(=O)[C@@H](CC(=O)O)S[C@H](c2ccccc2Cl)c2cc(Cl)ccc21` (relative stereo) [Example 10-5, 3,5-trans-7-Chloro-5-(2-chlorophenyl)-1-isobutyl-2-oxo-1,2,3,5-tetrahydro-4,1-benzothiazepine-3-acetic acid], for which the pIC50 against squalene synthetase [1] was 7.60; on squalene synthetase [2], 7.29.

Consider `CCCN1C(=O)[C@@H](CC(=O)O)S[C@H](c2ccccc2Cl)c2cc(Cl)ccc21` (relative stereo) [Example 10-2], for which the negative logarithm of the IC50 (pIC50) at squalene synthetase [1] was 7.38; on squalene synthetase [2], 7.21.

Turning to `CC(C)(C)CN1C(=O)[C@@H](CC(=O)NCC(=O)O)S[C@H](c2ccccc2Cl)c2cc(Cl)ccc21` (relative stereo) [Example 23, N-[3,5-trans-7-Chloro-5-(2-chlorophenyl)-1-neopentyl-2-oxo-1,2,3,5-tetrahydro-4,1-benzothiazepine-3-acetyl]glycine], the negative-log IC50 (pIC50) against squalene synthetase [1] is 7.89; on squalene synthetase [2], 7.66.

On to `COc1ccc([C@@H]2S[C@@H](CC(=O)O)C(=O)N(CC(C)(C)C)c3ccc(Cl)cc32)c(OC)c1` [Example 50, (3S,5R)-7-Chloro-5-(2,4-dimethoxyphenyl)-1-neopentyl-2-oxo-1,2,3,5-tetrahydro-4,1-benzothiazepine-3-acetic acid], for which, on squalene synthetase [2], the pIC50 is below 6.00.

As for `CC(C)(C)CN1C(=O)[C@@H](CC(=O)O)S[C@H](c2ccccc2Cl)c2cc(Cl)ccc21` (relative stereo) [Example 9, 3,5-trans-7-Chloro-5-(2-chlorophenyl)-1-neopentyl-2-oxo-1,2,3,5-tetrahydro-4,1-benzothiazepine-3-acetic acid], the pIC50 was 7.41 against squalene synthetase [1] and 6.74 against squalene synthetase [2].

For `CN1C(=O)[C@@H](CC(=O)O)S[C@H](c2ccccc2Cl)c2cc(Cl)ccc21` (relative stereo) [Example 10-3], the pIC50 on squalene synthetase [2] was 6.04.

The molecule `COc1cccc([C@@H]2S[C@@H](CC(=O)O)C(=O)N(CC(C)(C)C)c3ccc(Cl)cc32)c1OC` [Example 44, (3S,5R)-7-Chloro-5-(2,3-dimethoxyphenyl)-1-neopentyl-2-oxo-1,2,3,5-tetrahydro-4,1-benzothiazepine-3-acetic acid] gave a pIC50 against squalene synthetase [2] of 6.02. The pIC50 values of the last two molecules are within 0.2 log units of each other.

The molecule `COC(=O)C[C@H]1S[C@H](c2ccccc2OC)c2cc(Cl)ccc2N(CC(C)C)C1=O` (relative stereo) [Example 8-1, 3,5-trans-7-Chloro-5-(2-methoxyphenyl)-1-isobutyl-2-oxo-1,2,3,5-tetrahydro-4,1-benzothiazepine-3-acetic acid methyl ester] had a pIC50 on squalene synthetase [1] of 5.70.

`COc1ccccc1[C@H]1O[C@H](CC(=O)O)C(=O)N(CC(C)C)c2sc(Cl)cc21` (relative stereo) [Example 36, 3,5-trans-7-Chloro-1-isobutyl-5-(2-methoxyphenyl)-2-oxo-1,2,3,5-tetrahydro-4,1-thieno[2,3-e]oxazepine-3-acetic acid] gave a pIC50 at squalene synthetase [2] of 6.31.

The molecule `CC(C)(C)CN1C(=O)[C@@H](CC(=O)O)[S+]([O-])[C@H](c2ccccc2Cl)c2cc(Cl)ccc21` (relative stereo) [Example 19, 3,5-trans-7-Chloro-5-(2-chlorophenyl)-1-neopentyl-2-oxo-1,2,3,5-tetrahydro-4,1-benzothiazepine-3-acetic acid S-oxide] showed a pIC50 at squalene synthetase [2] of 6.15.

On to `COc1ccccc1[C@H]1O[C@@H](CC(=O)O)C(=O)N(CC(C)(C)C)c2sc(Cl)cc21` (relative stereo) [Example 34, 3,5-cis-7-Chloro-5-(2-methoxyphenyl)-1-neopentyl-2-oxo-1,2,3,5-tetrahydro-4,1-thieno[2,3-e]oxazepine-3-acetic acid], for which, at squalene synthetase [2], the pIC50 is below 6.00.

For `CC(C)(C)CN1C(=O)[C@@H](CC(=O)O)O[C@H](c2ccccc2Cl)c2cc(Cl)sc21` (relative stereo) [Example 31, 3,5-trans-7-Chloro-5-(2-chlorophenyl)-1-neopentyl-2-oxo-1,2,3,5-tetrahydro-4,1-thieno[2,3-e]benzoxazepine-3-acetic acid], the pIC50 at squalene synthetase [2] is 6.77.

Take `CC(C)(C)CN1C(=O)[C@@H](CC(=O)O)S(=O)(=O)[C@H](c2ccccc2Cl)c2cc(Cl)ccc21` (relative stereo) [Example 21, 3,5-trans-7-Chloro-5-(2-chlorophenyl)-1-neopentyl-2-oxo-1,2,3,5-tetrahydro-4,1-benzothiazepine-3-acetic acid S-dioxide]: the negative logarithm of the IC50 (pIC50) against squalene synthetase [2] is 5.48.

In turn, `CCN1C(=O)[C@@H](CC(=O)O)S[C@H](c2ccccc2Cl)c2cc(Cl)ccc21` (relative stereo) [Example 10-4] had a pIC50 at squalene synthetase [2] of 7.00. This pIC50 is 1.52 log units higher than that of the molecule before.

`CC(C)CN1C(=O)[C@@H](CC(=O)O)N=C(c2ccccc2Cl)c2cc(Cl)ccc21` [Example 13, (3R)-1-Isobutyl-7-chloro-5-(2-chlorophenyl)-2,3-dihydro-2-oxo-1H-1,4-benzodiazepine-3-acetic acid]: the pIC50 on squalene synthetase [2] was 5.41.
